Patent US5859007A, “CCK or gastrin modulating benzo [b][1,4] diazepines derivatives” (Glaxo Wellcome Inc., priority 1994, dated 1999)

System: isolated guinea pig gallbladder
Test: Functional activity in isolated guinea pig gallbladder preparation
Type: cell-based
Conditions: Cavia porcellus, expressed as % CCK-induced maximal response; for activation at 30 µM: 3 × 10^-5 M test compound, read-out: % Contraction (3 × 10^-5 M); for activation at 1 µM: 1 × 10^-6 M test compound, read-out: %Contraction (1 × 10^-6 M)
Experimental: 3. GUINEA PIG GALL BLADDER ASSAY
Gallbladders are removed from guinea pigs sacrificed by cervical dislocation. The isolated gallbladders are cleaned of adherent connective tissue and cut into two rings from each animal (2-4 mm in length). The rings are subsequently suspended in organ chambers containing a physiological salt solution (118.4 mM NaCl, 4.7 mM KCl, 1.2 mM MgSO4, 2.5 mM CaCl2, 1.2 mM KH2 […], 25 mM NaHCO3, 11.1 mM dextrose). The bathing solution is maintained at 37° C. and aerated with 95% O2 /5% CO2. Tissues are connected via gold chains and stainless steel mounting wires to isometric force displacement transducers (Grass, Model FT03 D). Responses are then recorded on a polygraph (Grass, Model 7E).
Rings are gradually stretched (over a 120 min. period) to a basal resting tension of 1 gm which is maintained throughout the experiment. During the basal tension adjustment period, the rings are exposed to acetylcholine (10^-6 M) four times to verify tissue contractility. The tissues are then exposed to a submaximal dose of sulfated CCK-8 (Sigma, 3×10^-9 M). After obtaining a stable response, the tissues are washed out 3 times rapidly and every 5 to 10 minutes for 1 hour to reestablish a stable baseline.
Compounds are dissolved in dimethylsulfoxide ([…]) followed by a concentration-response curve to sulfated CCK-8 (10^-10 to 10^-6 M) in the presence of the highest dose of the test compound. As a final test, ACH (10 mM) is added to induce maximal contraction. A minimum of three determinations of activity are made for each test compound.

Row | SMILES | activation at 30 µM | activation at 1 µM
1 | COc1ccc(N(C(=O)CN2C(=O)C(Cc3n[nH]c4ccccc34)(OC)C(=O)N(c3ccccc3)c3ccccc32)C(C)C)cc1 (stereo not drawn) [Example 43, 2-[3-(1H-Indazol-3-ylmethyl)-3-methoxy-2,4-dioxo-5-phenyl-2,3,4,5-tetrahydro-benzo[b][1,4]diazepin-1-yl]-N-isopropyl-N-(4-methoxy-phenyl) acetamide] | 61% | –
2 | COc1ccc(N(C(=O)CN2C(=O)C(Cc3nn(C)c4ccccc34)C(=O)N(c3ccccc3)c3ccccc32)C(C)C)cc1 (stereo not drawn) [Example 44, N-Isopropyl-N-(4-methoxy-phenyl)-2-[3-(1-methyl-1H-indazol-3-ylmethyl)-2,4-dioxo-5-phenyl-2,3,4,5-tetrahydro-benzo[b][1,4]diazepin-1-yl]acetamide] | 83% | 57%
3 | COc1ccc(N(C(=O)CN2C(=O)C(C)(Cc3nn(C)c4ccccc34)C(=O)N(c3ccccc3)c3ccccc32)C(C)C)cc1 (stereo not drawn) [Example 45, N-Isopropyl-N-(4-methoxy-phenyl)-2-[3-(1-methyl-1H-indazol-3-ylmethyl)-3-methyl-2,4-dioxo-5-phenyl-2,3,4,5-tetrahydro-benzo[b][1,4]diazepin-1-yl]acetamide] | – | 57%
4 | COc1ccc(N(C(=O)CN2C(=O)C(Cc3nccn3-c3ccccc3)C(=O)N(c3ccccc3)c3ccccc32)C(C)C)cc1 (stereo not drawn) [Example 46, 2-(2,4-Dioxo-5-phenyl-3-(1-phenyl-imidazo-2-yl)methyl-2,3,4,5-tetrahydro-benzo[b][1,4]diazepin-1-yl)-N-isopropyl-N-(4-methoxy)-phenyl acetamide] | 6% | 6%
5 | COc1ccc(N(C(=O)CN2C(=O)C(Cc3noc4ccccc34)C(=O)N(c3ccccc3)c3ccccc32)C(C)C)cc1 (stereo not drawn) [Example 47, 2-(3-Benzo[d]isoxazol-3-ylmethyl-2,4-dioxo-5-phenyl-2,3,4,5-tetrahydro-benzo[b][1,4]diazepin-1-yl)-N-isopropyl-N-(4-methoxy-phenyl) acetamide] | – | 92%
6 | COc1ccc(N(C(=O)CN2C(=O)C(Cc3noc4ncccc34)C(=O)N(c3ccccc3)c3ccccc32)C(C)C)cc1 (stereo not drawn) [Example 48, N-Isopropyl-2-(3-isoxazolo[5,4-b]pyridin-3-ylmethyl-2,4-dioxo-5-phenyl-2,3,4,5-tetrahydro-benzo[b][1,4]diazepin-1-yl)-N-(4-methoxy-phenyl) acetamide] | 75% | –
7 | COc1ccc(N(C(=O)CN2C(=O)C(Cc3n[nH]c4ncccc34)C(=O)N(c3ccccc3)c3ccccc32)C(C)C)cc1 (stereo not drawn) [Example 50, 2-[2,4-Dioxo-5-phenyl-3-(1H-pyrazolo[3,4-b]pyridin-3-ylmethyl)-2,3,4,5-tetrahydro-benzo[b][1,4]diazepin-1-yl]-N-isopropyl-N-(4-methoxy-phenyl)-acetamide] | 94% | 83%
8 | COc1ccc(N(C(=O)CN2C(=O)C(Cc3n[nH]c4c3CCCC4)C(=O)N(c3ccccc3)c3ccccc32)C(C)C)cc1 (stereo not drawn) [Example 51, 2-[2,4-Dioxo-5-phenyl-3-(4,5,6,7-tetrahydro-1H-indazol-3-ylmethyl)-2,3,4,5-tetrahydro-benzo[b][1,4]diazepin-1-yl]-N-isopropyl-N-(4-methoxy-phenyl)-acetamide] | 83% | 82%
9 | CC(C)N(C(=O)CN1C(=O)C(Cc2n[nH]c3ccccc23)C(=O)N(c2ccccc2)c2ccccc21)c1ccc(C(F)(F)F)cc1 (stereo not drawn) [Example 52, 2-[3-(1H-Indazol-3-ylmethyl)-2,4-dioxo-5-phenyl-2,3,4,5-tetrahydro-benzo[b][1,4]diazepin-1-yl]-N-isopropyl-N-(4-trifluoromethyl-phenyl)-acetamide] | 96% | 70%
10 | COc1ccc(N(C(=O)CN2C(=O)C(Cc3n[nH]c4ccccc34)(OC)C(=O)N(c3cccnc3)c3ccccc32)C(C)C)cc1 (stereo not drawn) [Example 53, 2-[3-(1H-Indazol-3-ylmethyl)-3-methoxy-2,4-dioxo-5-pyridin-3-yl-2,3,4,5-tetrahydro-benzo[b][1,4]diazepin-1-yl]-N-isopropyl-N-(4-methoxy-phenyl)-acetamide] | 103% | 96%
11 | COc1ccc(N(C(=O)CN2C(=O)C(Cc3cc(C)nn3Cc3ccccc3)C(=O)N(c3ccccc3)c3ccccc32)C(C)C)cc1 (stereo not drawn) [Example 54, 2-[3-(2-Benzyl-5-methyl-2H-pyrazol-3ylmethyl)-2,4-dioxo-5-phenyl-2,3,4,5-tetrahydro-benzo[b][1,4]diazepin-1-yl]-N-isopropyl-N-(4-methoxy-phenyl)-acetamide] | 43% | 63%
12 | COc1ccc(N(C(=O)CN2C(=O)C(Cc3cc(C)n[nH]3)C(=O)N(c3ccccc3)c3ccccc32)C(C)C)cc1 (stereo not drawn) [Example 55, N-Isopropyl-N-(4-methoxy-phenyl)-2-[3-(5-methyl-2H-pyrazol-3ylmethyl)-2,4-dioxo-5-phenyl-2,3,4,5-tetrahydro-benzo[b][1,4]diazepin-1-yl]-acetamide] | – | 21%
13 | COc1ccc(N(C(=O)CN2C(=O)C(Cn3cnc4ccccc43)C(=O)N(c3ccccc3)c3ccccc32)C(C)C)cc1 (stereo not drawn) [Example 56, 2-(3-Benzoimidazol-1-ylmethyl-2,4-dioxo-5-phenyl-2,3,4,5-tetrahydro-benzo[b][1,4]diazepin-1-yl]-N-isopropyl-N-(4-methoxy-phenyl)-acetamide] | 98% | 90%
14 | CC(C)N(C(=O)CN1C(=O)C(Cc2n[nH]c3ccccc23)C(=O)N(c2ccccc2)c2ccccc21)c1ccc(F)cc1 (stereo not drawn) [Example 57, N-(4-Fluoro-phenyl)-2-[3-(1H-indazol-3-ylmethyl)-2,4-dioxo-5-phenyl-2,3,4,5-tetrahydro-benzo[b][1,4]diazepin-1-yl]-N-isopropyl-acetamide] | 134% | 99%
15 | COc1ccc(N(C(=O)CN2C(=O)C(Cc3n[nH]c4ccccc34)C(=O)N(c3ccsc3)c3ccccc32)C(C)C)cc1 (stereo not drawn) [Example 58, 2-[3-(1H-Indazol-3-ylmethyl)-2,4-dioxo-5-thiophen-3-yl-2,3,4,5-tetrahydro-benzo[b][1,4]diazepin-1-yl]-N-isopropyl-N-(4-methoxy-phenyl)-acetamide] | 95% | 80%
16 | COc1ccc(N(C(=O)CN2C(=O)C(Cc3n[nH]c4ccccc34)C(=O)N(c3cccs3)c3ccccc32)C(C)C)cc1 (stereo not drawn) [Example 59, 2-[3-(1H-Indazol-3-ylmethyl)-2,4-dioxo-5-thiophen-2-yl-2,3,4,5-tetrahydro-benzo[b][1,4]diazepin-1-yl]-N-isopropyl-N-(4-methoxy-phenyl)-acetamide] | 102% | 100%
17 | Cc1ccc(N(C(=O)CN2C(=O)C(Cc3n[nH]c4cc(F)ccc34)C(=O)N(c3ccccc3)c3ccccc32)C(C)C)cc1 (stereo not drawn) [Example 60, 2-[3-(6-Fluoro-1H-indazol-3-ylmethyl)-2,4-dioxo-5-phenyl-2,3,4,5,tetrahydro-benzo[b][1,4]diazepin-1-yl]-N-isopropyl-N-p-tolyl-acetamide] | 81% | 94%
18 | O=C1C(Cc2n[nH]c3ccccc23)C(=O)N(c2ccccc2)c2ccccc2N1CC(=O)N(c1ccccc1)C1CC1 (stereo not drawn) [Example 61, N-Cyclopropyl-2-[3-(1H-indazol-3-ylmethyl)-2,4-dioxo-5-phenyl-2,3,4,5,tetrahydro-benzo[b][1,4]diazepin-1-yl]-N-phenyl-acetamide] | 77% | 63%
19 | COc1ccc(N(C(=O)CN2C(=O)C(Cc3n[nH]c4ccccc34)C(=O)N(c3ccccc3)c3ccccc32)C2CCCC2)cc1 (stereo not drawn) [Example 62, N-Cyclopentyl-2-[3-(1H-indazol-3-ylmethyl)-2,4-dioxo-5-phenyl-2,3,4,5,tetrahydro-benzo[b][1,4]diazepin-1-yl]-N-(4-methoxy-phenyl)-acetamide] | 86% | 96%
20 | CC(C)N(C(=O)CN1C(=O)C(Cc2n[nH]c3cc(F)ccc23)C(=O)N(c2ccccc2)c2ccccc21)c1ccc(F)cc1 (stereo not drawn) [Example 63, 2-[3-(6-Fluoro-1H-indazol-3-ylmethyl)-2,4-dioxo-5-phenyl-2,3,4,5,tetrahydro-benzo[b][1,4]diazepin-1-yl]-N-(4-fluoro-phenyl)-N-isopropyl-acetamide] | 96% | 77%
21 | CC(=O)n1nc(CC2C(=O)N(CC(=O)N(c3ccc(F)cc3)C(C)C)c3ccccc3N(c3ccccc3)C2=O)c2ccc(F)cc21 (stereo not drawn) [Example 64, 2-[3-(1-Acetyl-6-fluoro-1H-indazol-3-ylmethyl)-2,4-dioxo-5-phenyl-2,3,4,5,tetrahydro-benzo[b][1,4]diazepin-1-yl]-N-(4-fluoro-phenyl)-N-isopropyl-acetamide] | 98% | 67%
22 | CC(C)(C)N(C(=O)CN1C(=O)C(Cc2n[nH]c3ccccc23)C(=O)N(c2ccccc2)c2ccccc21)c1ccccc1 (stereo not drawn) [Example 65, N-tert-Butyl-2-[3-(1H-indazol-3-ylmethyl)-2,4-dioxo-5-phenyl-2,3,4,5,tetrahydro-benzo[b][1,4]diazepin-1-yl]-N-phenyl-acetamide] | 93% | 88%
